Reference: article PMC3119665, “A New Drug Design Targeting the Adenosinergic System for Huntington's Disease” (PLoS ONE, 2011)

Columns and labels:
Assay in all cases: Radioligand binding panel (Table S1)
Conditions in all cases: 10 μM T1-11, n 2
Lipoxygenase 5-LO = molecular target: T1, Lipoxygenase 5-LO (Homo sapiens, UniProt P09917)
T1 construct: purchased MDS Pharma Services Taiwan

Dopamine D5 = molecular target: T2, Dopamine D5 (Homo sapiens, UniProt P21918)
T2 construct: purchased MDS Pharma Services Taiwan

Orexin OX 2 = molecular target: T3, Orexin OX 2 (Homo sapiens, UniProt O43614)
T3 construct: purchased MDS Pharma Services Taiwan

Glutamate, NMDA, Agonism = system: Glutamate, NMDA, Agonism; design: species or system rat
Potassium Channel [KATP] = molecular target: T4, Potassium Channel [KATP] (Cricetus cricetus, UniProt Q09427); design: species or system hamster
T4 construct: purchased MDS Pharma Services Taiwan
Protocol: Radoligand binding assays were performed by MDS Pharma Services Taiwan (Taipei, Taiwan) using standard binding protocols. For the binding assay of the A2AR [67], membrane proteins collected from HEK293 cells overexpressing the human A2AR were incubated in reaction buffer [50 mM Tris-HCl (pH 7.4), 10 mM MgCl2, 1 mM EDTA, and 2 U/mL adenosine deaminase] containing ^3H-CGS21680 (50 nM) for 90 min at 25°C. Nonspecific binding was assessed in the presence of 50 µM adenosine- 5′-N-ethylcarboxamide. […] Nonspecific binding was assessed in the presence of 1 µM IB-MECA (Tocris Bioscience, Ellisville, MS, USA).

T2 sequence (P21918 whole entry): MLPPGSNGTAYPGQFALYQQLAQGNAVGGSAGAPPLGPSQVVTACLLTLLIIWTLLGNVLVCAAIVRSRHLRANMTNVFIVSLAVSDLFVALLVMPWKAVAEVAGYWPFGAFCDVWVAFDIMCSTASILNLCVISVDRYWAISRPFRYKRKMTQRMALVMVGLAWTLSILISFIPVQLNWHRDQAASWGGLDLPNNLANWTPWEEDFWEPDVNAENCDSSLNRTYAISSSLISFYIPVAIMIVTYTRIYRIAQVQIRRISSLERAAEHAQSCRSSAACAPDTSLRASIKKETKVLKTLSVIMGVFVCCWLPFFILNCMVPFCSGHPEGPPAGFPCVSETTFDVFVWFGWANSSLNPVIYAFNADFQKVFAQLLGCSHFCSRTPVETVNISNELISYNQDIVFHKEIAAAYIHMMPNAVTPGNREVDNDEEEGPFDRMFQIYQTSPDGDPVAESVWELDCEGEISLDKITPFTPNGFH
T3 sequence (O43614 whole entry): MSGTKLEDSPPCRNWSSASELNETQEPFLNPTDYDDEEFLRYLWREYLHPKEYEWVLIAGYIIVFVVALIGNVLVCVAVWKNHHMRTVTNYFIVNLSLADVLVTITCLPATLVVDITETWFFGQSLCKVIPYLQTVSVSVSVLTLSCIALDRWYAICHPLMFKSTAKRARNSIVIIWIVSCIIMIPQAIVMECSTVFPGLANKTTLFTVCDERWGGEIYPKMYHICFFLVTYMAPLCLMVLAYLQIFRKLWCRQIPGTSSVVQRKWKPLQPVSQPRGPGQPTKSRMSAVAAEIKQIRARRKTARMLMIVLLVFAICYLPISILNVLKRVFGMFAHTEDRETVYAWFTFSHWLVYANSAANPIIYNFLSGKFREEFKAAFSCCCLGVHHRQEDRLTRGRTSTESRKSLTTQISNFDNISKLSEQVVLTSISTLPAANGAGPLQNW
T1 sequence (P09917 whole entry): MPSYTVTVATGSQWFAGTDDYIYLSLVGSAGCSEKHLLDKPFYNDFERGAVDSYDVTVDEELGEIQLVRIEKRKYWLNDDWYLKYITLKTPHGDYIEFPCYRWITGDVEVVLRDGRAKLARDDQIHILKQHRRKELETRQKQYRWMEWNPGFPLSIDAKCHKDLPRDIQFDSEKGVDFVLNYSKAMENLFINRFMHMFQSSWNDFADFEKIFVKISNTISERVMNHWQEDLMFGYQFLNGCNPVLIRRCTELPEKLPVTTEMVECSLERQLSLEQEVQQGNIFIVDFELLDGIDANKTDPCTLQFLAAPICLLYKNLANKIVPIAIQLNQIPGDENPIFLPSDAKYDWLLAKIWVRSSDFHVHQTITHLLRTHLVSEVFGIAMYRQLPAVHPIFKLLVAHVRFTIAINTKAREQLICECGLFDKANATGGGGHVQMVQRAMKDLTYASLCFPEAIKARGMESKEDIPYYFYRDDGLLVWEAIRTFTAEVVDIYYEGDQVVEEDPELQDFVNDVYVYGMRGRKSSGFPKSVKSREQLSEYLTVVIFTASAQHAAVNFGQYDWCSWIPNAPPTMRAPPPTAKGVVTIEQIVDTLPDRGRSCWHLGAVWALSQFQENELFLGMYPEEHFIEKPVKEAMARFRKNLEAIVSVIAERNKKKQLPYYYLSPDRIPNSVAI
T4 sequence (Q09427 whole entry): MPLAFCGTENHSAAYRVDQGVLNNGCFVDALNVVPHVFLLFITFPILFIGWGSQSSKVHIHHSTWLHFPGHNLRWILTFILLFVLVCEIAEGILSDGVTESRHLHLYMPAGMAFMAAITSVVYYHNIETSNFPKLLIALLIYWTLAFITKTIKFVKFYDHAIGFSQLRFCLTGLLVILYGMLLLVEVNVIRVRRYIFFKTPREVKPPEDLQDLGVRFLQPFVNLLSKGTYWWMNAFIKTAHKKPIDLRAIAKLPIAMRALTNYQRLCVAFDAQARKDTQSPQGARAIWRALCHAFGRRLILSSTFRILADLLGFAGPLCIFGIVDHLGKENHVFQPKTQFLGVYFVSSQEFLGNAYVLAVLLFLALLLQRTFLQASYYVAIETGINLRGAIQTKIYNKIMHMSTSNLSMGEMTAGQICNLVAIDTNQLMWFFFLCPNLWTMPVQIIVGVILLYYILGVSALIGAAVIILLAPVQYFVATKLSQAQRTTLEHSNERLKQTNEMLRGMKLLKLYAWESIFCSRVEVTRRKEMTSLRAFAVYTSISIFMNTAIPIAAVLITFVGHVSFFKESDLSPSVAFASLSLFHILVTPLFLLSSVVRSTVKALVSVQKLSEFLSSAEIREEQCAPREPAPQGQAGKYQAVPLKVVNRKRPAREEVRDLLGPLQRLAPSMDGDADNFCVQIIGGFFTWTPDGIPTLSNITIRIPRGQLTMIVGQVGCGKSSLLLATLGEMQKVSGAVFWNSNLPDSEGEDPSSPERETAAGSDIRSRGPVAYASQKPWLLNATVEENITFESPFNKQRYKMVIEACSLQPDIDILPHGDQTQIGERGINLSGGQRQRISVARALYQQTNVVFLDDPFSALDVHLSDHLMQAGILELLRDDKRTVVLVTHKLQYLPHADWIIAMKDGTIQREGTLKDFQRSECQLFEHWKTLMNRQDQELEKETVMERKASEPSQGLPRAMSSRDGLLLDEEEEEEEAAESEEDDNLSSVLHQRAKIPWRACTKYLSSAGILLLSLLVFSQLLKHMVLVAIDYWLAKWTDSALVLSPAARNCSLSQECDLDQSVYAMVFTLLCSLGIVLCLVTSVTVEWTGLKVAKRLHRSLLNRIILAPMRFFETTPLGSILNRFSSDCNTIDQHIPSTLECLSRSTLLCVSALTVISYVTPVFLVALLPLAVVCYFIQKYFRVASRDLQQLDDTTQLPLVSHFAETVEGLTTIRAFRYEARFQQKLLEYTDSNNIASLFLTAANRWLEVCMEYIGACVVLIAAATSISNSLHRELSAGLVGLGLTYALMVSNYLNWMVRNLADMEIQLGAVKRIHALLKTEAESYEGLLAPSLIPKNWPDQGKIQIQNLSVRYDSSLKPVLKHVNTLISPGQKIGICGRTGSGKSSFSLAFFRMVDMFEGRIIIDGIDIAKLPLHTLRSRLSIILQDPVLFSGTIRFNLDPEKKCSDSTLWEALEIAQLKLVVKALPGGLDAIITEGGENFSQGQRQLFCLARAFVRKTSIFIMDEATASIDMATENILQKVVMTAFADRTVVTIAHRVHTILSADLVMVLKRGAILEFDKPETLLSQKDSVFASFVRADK

With `OC[C@H]1O[C@@H](n2cnc3c(NCc4ccc(O)cc4)ncnc32)[C@H](O)[C@@H]1O` [T1-11, N ^6-(4-hydroxybenzyl)adenine riboside] the inhibition at 10 µM (Lipoxygenase 5-LO) was 25%, the inhibition at 10 µM (Dopamine D5) was 2% and the inhibition at 10 µM (Orexin OX 2) was -7%. The “% Inhibition” value (Glutamate, NMDA, Agonism) was 10% and the inhibition at 10 µM (Potassium Channel [KATP]) was 6%.
